# Reference: patent publication US20260356851A1, “TRICYCLIC COMPOUNDS AND USES THEREOF” (HUTCHMED LIMITED, priority 2023, published 2026)
# Columns and labels:
# Format in all cases: cell-based
# [1] = target: T1, pERK1/2 (Thr202/Tyr204), NCI-1H358 (KRAS G12C) (Homo sapiens, UniProt P01116, G12C); experiment: Assay of intracellular pERK1/2 (Thr202/Tyr204) phosphorylation in NCI-H358 cells (KRAS G12C); conditions: pERK1/2, 2 days, read-out: NCI-H358 (KRAS G12C) IC50
# T1 construct: pERK1/2 HTRF read-out
# Procedure, shortened: (§1)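 Cells (10000-12000/well) exposed to 3-fold compound dilutions for 2 days at 37 °C, then lysed; pERK1/2 (Thr202/Tyr204) measured by HTRF with d2 and cryptate antibodies, 665/615 nm ratio.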
# [2] = target: T2, pERK1/2 (Thr202/Tyr204), NCI-1H441 (KRAS G12V) (Homo sapiens, UniProt P01116, G12V); experiment: Assay of intracellular pERK1/2 (Thr202/Tyr204) phosphorylation in NCI-H441 cells (KRAS G12V); conditions: pERK1/2, 2 days, read-out: NCI-H441 (KRAS G12V) IC50
# T2 construct: pERK1/2 HTRF read-out
# Procedure, shortened: as §1
# [3] = target: T3, pERK1/2 (Thr202/Tyr204), PANC-1 (KRAS G121D) (Homo sapiens, UniProt P01116, G12D); experiment: Assay of intracellular pERK1/2 (Thr202/Tyr204) phosphorylation in PANC-1 cells (KRAS G12D); conditions: pERK1/2, 2 days, read-out: PANC-1 (KRAS G12D) IC50
# T3 construct: pERK1/2 HTRF read-out
# Procedure, shortened: as §1
# T2 sequence (P01116 1-188 isoform P01116-2 G12V): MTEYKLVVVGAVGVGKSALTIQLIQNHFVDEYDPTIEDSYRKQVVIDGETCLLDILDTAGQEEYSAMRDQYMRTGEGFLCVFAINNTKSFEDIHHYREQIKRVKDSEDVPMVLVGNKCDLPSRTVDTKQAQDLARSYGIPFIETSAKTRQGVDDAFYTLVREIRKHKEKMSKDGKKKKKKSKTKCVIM
# T3 sequence (P01116 1-188 isoform P01116-2 G12D): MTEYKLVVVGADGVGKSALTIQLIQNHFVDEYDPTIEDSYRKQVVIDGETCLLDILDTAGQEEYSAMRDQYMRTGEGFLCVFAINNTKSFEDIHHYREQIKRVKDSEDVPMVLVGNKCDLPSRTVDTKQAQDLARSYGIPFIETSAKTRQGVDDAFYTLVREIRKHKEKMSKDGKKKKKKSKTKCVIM
# T1 sequence (P01116 1-188 isoform P01116-2 G12C): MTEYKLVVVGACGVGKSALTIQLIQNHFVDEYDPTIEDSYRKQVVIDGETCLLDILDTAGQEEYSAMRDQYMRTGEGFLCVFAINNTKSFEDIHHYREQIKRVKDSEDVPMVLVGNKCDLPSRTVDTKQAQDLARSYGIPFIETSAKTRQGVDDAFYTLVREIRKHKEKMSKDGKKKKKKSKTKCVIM
IC50 [1],IC50 [2],IC50 [3],SMILES
0.6 nM,1 nM,11 nM,[2H]C([2H])(Oc1nc2c3c(nc(-c4cc(N)cc(C)c4C(F)(F)F)c(F)c3n1)OCCN2C(C)c1cccnc1N)[C@@H]1C[C@@H](F)CN1C([2H])([2H])[2H] (stereo partly drawn) [Compound 122]
264 nM,506 nM,> 1000 nM,CC(c1cccnc1N)N1CCOc2nc(-c3cc(N)cc(Cl)c3C3CC3)c(F)c3nc(OCC4(C#N)CC4)nc1c23 (stereo not drawn) [Compound 68]
0.2 nM,0.4 nM,1 nM,CC(c1cc(F)cnc1N)N1c2nc(OC[C@@]34CCCN3C[C@H](F)C4)nc3c(F)c(-c4c5cn[nH]c5cc5cccc(F)c45)nc(c23)OC[C@@H]1C (stereo partly drawn) [Compound 367]
> 100 nM,> 100 nM,> 100 nM,CC(c1cccnc1N)N1c2nc(OC[C@@]34CCCN3C[C@H](F)C4)nc3c(F)c(-c4c(C(F)(F)F)ccc5ncccc45)nc(c23)OC[C@@H]1C (stereo partly drawn) [Compound 337]
1 nM,2 nM,34 nM,[2H]C([2H])(Oc1nc2c3c(nc(-c4cc(N)cc(Cl)c4C(F)(F)F)c(F)c3n1)OCCN2C(C)c1cccnc1N)[C@@H]1CCC([2H])([2H])N1C([2H])([2H])[2H] (stereo partly drawn) [Compound 112]
0.5 nM,0.8 nM,7 nM,Cc1cc(N)cc(-c2nc3c4c(nc(OC[C@@]56CCCN5C[C@H](F)C6)nc4c2F)N(C(C)c2cc(F)cnc2N)CCO3)c1C(F)(F)F (stereo partly drawn) [Compound 173]
> 100 nM,> 100 nM,> 100 nM,"Cc1c(F)c(N)cc(-c2nc3c4c(nc(OC[C@@]56CCCN5C[C@H](F)C6)nc4c2F)N(C(C)c2cn(C)nc2N)CCO3)c1C(F)(F)F (single isomer, unassigned) [Compound 261, 4-((R or S)-1-(5-(5-amino-4-fluoro-3-methyl-2-(trifluoromethyl)phenyl)-4-fluoro-2-(((2R,7aS)-2-fluorotetrahydro-1H-pyrrolizin-7a(5H)-yl)methoxy)-8,9-dihydro-10H-7-oxa-1,3,6,10-tetraazacyclohepta[de]naphthalen-10-yl)ethyl)-1-methyl-1H-pyrazol-3-amine]"
0.5 nM,1 nM,3 nM,Cc1cc2[nH]ncc2c(-c2nc3c4c(nc(OC[C@@]56CCCN5C[C@H](F)C6)nc4c2F)N(C(C)c2cccnc2N)[C@@H](C)CO3)c1Cl (stereo partly drawn) [Compound 313]
14 nM,48 nM,> 100 nM,"Cc1cc(N)cc(-c2nc3c4c(nc(OC[C@@H]5CCCN5C5COC5)nc4c2F)N(C(C)c2cccnc2N)CCO3)c1C(F)(F)F (single isomer, unassigned) [Compound 161, 3-((R or S)-1-(5-(5-amino-3-methyl-2-(trifluoromethyl)phenyl)-4-fluoro-2-(((S)-1-(oxetan-3-yl)pyrrolidin-2-yl)methoxy)-8,9-dihydro-10H-7-oxa-1,3,6,10-tetraazacyclohepta[de]naphthalen-10-yl)ethyl)pyridin-2-amine]"
17 nM,61 nM,> 100 nM,[2H]C([2H])(Oc1nc2c3c(nc(-c4cc(N)c(F)cc4C(F)(F)F)c(F)c3n1)OCCN2C(C)c1cccnc1N)[C@@H]1C[C@@H](F)CN1C([2H])([2H])[2H] (stereo partly drawn) [Compound 136]
0.2 nM,0.5 nM,1 nM,CC(c1cccnc1N)N1c2nc(OC[C@@H]3C[C@@H](F)CN3C)nc3c(F)c(-c4cc(O)cc5ccc(F)c(F)c45)nc(c23)OC[C@@H]1C (stereo partly drawn) [Compound 281]
1 nM,2 nM,10 nM,CC(c1cccnc1N)N1CCOc2nc(-c3cc(O)cc(Cl)c3C3CC3)c(F)c3nc(OC[C@@]45CCCN4C[C@H](F)C5)nc1c23 (stereo partly drawn) [Compound 4]
9 nM,33 nM,> 100 nM,"[2H]C1([2H])Oc2nc(-c3cc(N)c(F)c(Cl)c3C(F)(F)F)c(F)c3nc(OC[C@@]45CCCN4C[C@H](F)C5)nc(c23)N(C(C)c2cccnc2N)C1([2H])[2H] (single isomer, unassigned) [Compound 207, 3-((R or S)-1-(5-(5-amino-3-chloro-4-fluoro-2-(trifluoromethyl)phenyl)-4-fluoro-2-(((2R,7aS)-2-fluorotetrahydro-1H-pyrrolizin-7a(5H)-yl)methoxy)-8,9-dihydro-10H-7-oxa-1,3,6,10-tetraazacyclohepta[de]naphthalen-10-yl-8,8,9,9-d4)ethyl)pyridin-2-amine]"
0.2 nM,0.3 nM,1 nM,[2H]C1([2H])CC[C@@]2(COc3nc4c5c(nc(-c6cc(N)c(F)c(C)c6C(F)(F)F)c(F)c5n3)OCCN4C(C)c3cccnc3N)C[C@@]([2H])(F)CN12 (stereo partly drawn) [Compound 148]
0.2 nM,0.3 nM,0.2 nM,CCc1c(F)ccc2cc(O)cc(-c3nc4c5c(nc(OC[C@@H]6C[C@@H](F)CN6C)nc5c3F)N(C(C)c3cccnc3N)[C@@H](C)CO4)c12 (stereo partly drawn) [Compound 290]
0.1 nM,0.4 nM,1 nM,"[2H]C1([2H])CC[C@@]2(C([2H])([2H])Oc3nc4c5c(nc(-c6cc(N)c(F)c(C)c6C(F)(F)F)c(F)c5n3)OCCN4C(C)c3cccnc3N)C[C@@]([2H])(F)CN12 (single isomer, unassigned; diastereomer 1) [Compound 178, (*)3-(1-(5-(5-amino-4-fluoro-3-methyl-2-(trifluoromethyl)phenyl)-4-fluoro-2-(((2R or 2S,7aS)-2-fluorotetrahydro-1H-pyrrolizin-7a(5H)-yl-2,5,5-d3)methoxy-d2)-8,9-dihydro-10H-7-oxa-1,3,6,10-tetraazacyclohepta[de]naphthalen-10-yl)ethyl)pyridin-2-amine (diastereomer 1)]"
0.8 nM,2 nM,24 nM,"[2H]C([2H])([2H])N1CCC[C@H]1COc1nc2c3c(nc(-c4cc(N)cc(C)c4C(F)(F)F)c(F)c3n1)OCCN2C(C)c1cccnc1N (single isomer, unassigned) [Compound 95, 3-((R or S)-1-(5-(5-amino-3-methyl-2-(trifluoromethyl)phenyl)-4-fluoro-2-(((S)-1-(methyl-d3)pyrrolidin-2-yl)methoxy)-8,9-dihydro-10H-7-oxa-1,3,6,10-tetraazacyclohepta[de]naphthalen-10-yl)ethyl)pyridin-2-amine]"
> 100 nM,> 100 nM,> 100 nM,"Cc1cc(N)cc(-c2nc3c4c(nc(OC[C@H]5CCCN5CCF)nc4c2F)N(C(C)c2cccnc2N)CCO3)c1C(F)(F)F (single isomer, unassigned) [Compound 79, 3-((R or S)-1-(5-(5-amino-3-methyl-2-(trifluoromethyl)phenyl)-4-fluoro-2-(((R)-1-(2-fluoroethyl)pyrrolidin-2-yl)methoxy)-8,9-dihydro-10H-7-oxa-1,3,6,10-tetraazacyclohepta[de]naphthalen-10-yl)ethyl)pyridin-2-amine]"
57 nM,> 100 nM,> 100 nM,"C[C@H](c1cccnc1N)N1c2nc(OC[C@@H]3C[C@@H](F)CN3C)nc3c(F)c(-c4cc(N)cc(Cl)c4C(F)(F)F)nc(c23)OC[C@@H]1C (single isomer, unassigned) [Compound 286, 3-((R or S)-1-((S)-5-(5-amino-3-chloro-2-(trifluoromethyl)phenyl)-4-fluoro-2-(((2S,4R)-4-fluoro-1-methylpyrrolidin-2-yl)methoxy)-9-methyl-8,9-dihydro-1H-7-oxa-1,3,6,10-tetraazacyclohepta[de]naphthalen-10-yl)ethyl)pyridin-2-amine]"
3 nM,10 nM,95 nM,Cc1cc(N)cc(-c2nc3c4c(nc(OCC5(CN(C)C)CC5)nc4c2F)N(C(C)c2cccnc2N)CCO3)c1C(F)(F)F (stereo not drawn) [Compound 69]
0.6 nM,2 nM,10 nM,CC(c1cccnc1N)N1c2nc(OC[C@@]34CCCN3C[C@H](F)C4)nc3c(F)c(-c4c(C(F)(F)F)cnc5[nH]ccc45)nc(c23)OC[C@@H]1C (stereo partly drawn) [Compound 323]
18 nM,31 nM,934 nM,CC(c1cccnc1N)N1CCOc2nc(-c3c(C(F)(F)F)ccc4[nH]ncc34)c(F)c3nc(OC[C@@H]4CC(F)(F)CN4C)nc1c23 (stereo partly drawn) [Compound 40]
0.9 nM,2 nM,41 nM,"Cc1cc(N)cc(-c2nc3c4c(nc(OC[C@H]5CCCN5C)nc4c2F)N(C(C)c2cccnc2N)CCO3)c1C(F)(F)F (single isomer, unassigned) [Compound 109, 3-((R or S)-1-(5-(5-amino-3-methyl-2-(trifluoromethyl)phenyl)-4-fluoro-2-(((R)-1-methylpyrrolidin-2-yl)methoxy)-8,9-dihydro-10H-7-oxa-1,3,6,10-tetraazacyclohepta[de]naphthalen-10-yl)ethyl)pyridin-2-amine]"
65 nM,57 nM,403 nM,C[C@H](c1cccnc1N)N1c2nc(OC[C@@]34CCCN3C[C@H](F)C4)nc3c(F)c(-c4c5ccccc5cc5[nH]ncc45)nc(c23)O[C@@H]2CCC[C@@H]21 [Compound 399]
46 nM,100 nM,> 100 nM,C#Cc1c(Cl)cc(N)cc1-c1nc2c3c(nc(OC[C@@H]4CCCN4C)nc3c1F)N(C(C)c1cccnc1N)CCO2 (stereo partly drawn) [Compound 94]
